In PubChem BioAssay (NCI):
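GI50 marks 50% less growth. TGI: total growth inhibition.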

How the values were obtained:
Experiment in all cases: NCI-60 cell line screen, 384-well format
[1] = system: A549 NSCLC
[2] = system: ACHN renal
[3] = system: CCRF-CEM leukemia
[4] = system: DU-145 prostate
[5] = system: EKVX NSCLC
[6] = system: HCC-2998 colon
[7] = system: HCT-15 colon
[8] = system: HL-60(TB) leukemia
[9] = system: HOP-62 NSCLC
[10] = system: HOP-92 NSCLC
[11] = system: HS 578T breast
[12] = system: HT29 colon
[13] = system: K-562 leukemia
[14] = system: KM12 colon
[15] = system: LOX IMVI melanoma
[16] = system: M14 melanoma
[17] = system: MALME-3M melanoma
[18] = system: MCF7 breast
[19] = system: MDA-MB-231 breast
[20] = system: MDA-MB-435 melanoma
[21] = system: MDA-MB-468 breast
[22] = system: MOLT-4 leukemia
[23] = system: NCI-H226 lung
[24] = system: NCI-H23 lung
[25] = system: NCI-H322M lung
[26] = system: NCI-H460 NSCLC
[27] = system: NCI-H522 lung
[28] = system: OVCAR-3 ovarian
[29] = system: OVCAR-4 ovarian
[30] = system: OVCAR-8 ovarian
[31] = system: PC-3 prostate
[32] = system: RPMI-8226 leukemia
[33] = system: RXF 393 renal
[34] = system: SF-268 CNS
[35] = system: SF-539 CNS
[36] = system: SK-MEL-2 melanoma
[37] = system: SK-MEL-28 melanoma
[38] = system: SK-MEL-5 melanoma
[39] = system: SK-OV-3 ovarian
[40] = system: SN12C renal
[41] = system: SNB-19 CNS
[42] = system: SR leukemia
[43] = system: SW-620 colon
[44] = system: TK-10 renal
[45] = system: U251 glioblastoma
[46] = system: UACC-257 melanoma
[47] = system: UO-31 renal

For `Cc1ncsc1-c1ccc(CNC(=O)[C@@H]2C[C@@H](O)CN2C(=O)[C@@H](NC(=O)C2(C#N)CC2)C(C)(C)C)cc1`, the GI50 [1] was > 100 µM, the TGI [1] was > 100 µM and the GI50 [2] was > 100 µM. For the same molecule, the TGI [2] was > 100 µM, the GI50 [3] was > 100 µM and the TGI [3] was > 100 µM. The GI50 [4] was > 100 µM, the TGI [4] was > 100 µM and the GI50 [5] was > 100 µM. The TGI [5] was > 100 µM, the GI50 [6] was > 100 µM and the TGI [6] was > 100 µM. The GI50 [7] was > 100 µM, the TGI [7] was > 100 µM and the GI50 [8] was > 100 µM. The TGI [8] was > 100 µM, the GI50 [9] was > 100 µM and the TGI [9] was > 100 µM. The GI50 [10] was > 100 µM, the TGI [10] was > 100 µM and the GI50 [11] was > 100 µM. For the same molecule, the TGI [11] was > 100 µM, the GI50 [12] was > 100 µM and the TGI [12] was > 100 µM. The GI50 [13] was > 100 µM, the TGI [13] was > 100 µM and the GI50 [14] was > 100 µM. For the same molecule, the TGI [14] was > 100 µM, the GI50 [15] was > 100 µM and the TGI [15] was > 100 µM. For the same molecule, the GI50 [16] was > 100 µM, the TGI [16] was > 100 µM and the GI50 [17] was > 100 µM. The TGI [17] was > 100 µM, the GI50 [18] was > 100 µM and the TGI [18] was > 100 µM. For the same molecule, the GI50 [19] was > 100 µM, the TGI [19] was > 100 µM and the GI50 [20] was > 100 µM. For the same molecule, the TGI [20] was > 100 µM, the GI50 [21] was > 100 µM and the TGI [21] was > 100 µM. The GI50 [22] was > 100 µM, the TGI [22] was > 100 µM and the GI50 [23] was > 100 µM. For the same molecule, the TGI [23] was > 100 µM, the GI50 [24] was > 100 µM and the TGI [24] was > 100 µM. For the same molecule, the GI50 [25] was > 100 µM, the TGI [25] was > 100 µM and the GI50 [26] was > 100 µM. For the same molecule, the TGI [26] was > 100 µM, the GI50 [27] was > 100 µM and the TGI [27] was > 100 µM. For the same molecule, the GI50 [28] was > 100 µM, the TGI [28] was > 100 µM and the GI50 [29] was > 100 µM. The TGI [29] was > 100 µM, the GI50 [30] was > 100 µM and the TGI [30] was > 100 µM. The GI50 [31] was > 100 µM, the TGI [31] was > 100 µM and the GI50 [32] was 46.7 µM. The TGI [32] was > 90.7 µM, the GI50 [33] was > 100 µM and the TGI [33] was > 100 µM. The GI50 [34] was 99.7 µM, the TGI [34] was > 100 µM and the GI50 [35] was > 100 µM. For the same molecule, the TGI [35] was > 100 µM, the GI50 [36] was > 100 µM and the TGI [36] was > 100 µM. The GI50 [37] was > 100 µM, the TGI [37] was > 100 µM and the GI50 [38] was > 100 µM. The TGI [38] was > 100 µM, the GI50 [39] was > 100 µM and the TGI [39] was > 100 µM. The GI50 [40] was > 100 µM, the TGI [40] was > 100 µM and the GI50 [41] was > 100 µM. The TGI [41] was > 100 µM, the GI50 [42] was > 100 µM and the TGI [42] was > 100 µM. The GI50 [43] was > 100 µM, the TGI [43] was > 100 µM and the GI50 [44] was > 100 µM. For the same molecule, the TGI [44] was > 100 µM, the GI50 [45] was > 100 µM and the TGI [45] was > 100 µM. The GI50 [46] was > 100 µM, the TGI [46] was > 100 µM and the GI50 [47] was > 100 µM. The TGI [47] was > 100 µM.
`O=C(NCc1ccncc1)C12CC3CC(C1)CC(c1ccc(Cl)cc1)(C3)C2` gave a GI50 [1] of 13.6 µM, a TGI [1] of 26.7 µM and a GI50 [2] of 15.1 µM. The TGI [2] was 28.6 µM, the GI50 [3] was 6.92 µM and the TGI [3] was 17.6 µM. It also gave a GI50 [4] of 14.5 µM, a TGI [4] of 27.8 µM and a GI50 [5] of 13.2 µM. The TGI [5] was 26 µM, the GI50 [6] was 11.1 µM and the TGI [6] was 25.2 µM. It also gave a GI50 [7] of 11.7 µM, a TGI [7] of 24.9 µM and a GI50 [8] of 2.75 µM. It also gave a TGI [8] of 6.12 µM, a GI50 [9] of 16.1 µM and a TGI [9] of 29.7 µM. It also gave a GI50 [10] of 10.8 µM, a TGI [10] of 23.1 µM and a GI50 [11] of 11.8 µM. The TGI [11] was 24.2 µM, the GI50 [12] was 12.1 µM and the TGI [12] was 24.8 µM. The GI50 [13] was 4.94 µM, the TGI [13] was 16.3 µM and the GI50 [14] was 13.1 µM. For the same molecule, the TGI [14] was 25.9 µM, the GI50 [15] was 15.9 µM and the TGI [15] was 29.6 µM. It also gave a GI50 [16] of 17.8 µM, a TGI [16] of 31.7 µM and a GI50 [17] of 15.6 µM. It also gave a TGI [17] of 29.1 µM, a GI50 [18] of 10.4 µM and a TGI [18] of 23.5 µM. For the same molecule, the GI50 [19] was 11.1 µM, the TGI [19] was 23.5 µM and the GI50 [20] was 16.5 µM. The TGI [20] was 30.2 µM, the GI50 [21] was 5.39 µM and the TGI [21] was 15.1 µM. It also gave a GI50 [22] of 4.37 µM, a TGI [22] of 14.7 µM and a GI50 [23] of 14.4 µM. It also gave a TGI [23] of 27.6 µM, a GI50 [24] of 11.9 µM and a TGI [24] of 24.6 µM. The GI50 [25] was 17.5 µM, the TGI [25] was 31.5 µM and the GI50 [26] was 12.7 µM. It also gave a TGI [26] of 25.9 µM, a GI50 [27] of 11.5 µM and a TGI [27] of 23.9 µM. For the same molecule, the GI50 [28] was 10.8 µM, the TGI [28] was 23.7 µM and the GI50 [29] was 13.6 µM. It also gave a TGI [29] of 26.5 µM, a GI50 [30] of 13 µM and a TGI [30] of 25.9 µM. For the same molecule, the GI50 [31] was 8.88 µM, the TGI [31] was 21.7 µM and the GI50 [32] was 3.59 µM. It also gave a TGI [32] of 9.73 µM, a GI50 [33] of 7.13 µM and a TGI [33] of 20 µM. For the same molecule, the GI50 [34] was 14.2 µM, the TGI [34] was 27.3 µM and the GI50 [35] was 16 µM. The TGI [35] was 29.7 µM, the GI50 [36] was 13 µM and the TGI [36] was 25.7 µM. It also gave a GI50 [37] of 17.3 µM, a TGI [37] of 31.1 µM and a GI50 [38] of 8.68 µM. For the same molecule, the TGI [38] was 21.2 µM, the GI50 [39] was 16 µM and the TGI [39] was 29.6 µM. The GI50 [40] was 14.4 µM, the TGI [40] was 27.5 µM and the GI50 [41] was 16.3 µM. For the same molecule, the TGI [41] was 30 µM, the GI50 [42] was 5.05 µM and the TGI [42] was 9.66 µM. The GI50 [43] was 13.7 µM, the TGI [43] was 26.8 µM and the GI50 [44] was 14.2 µM. For the same molecule, the TGI [44] was 27.4 µM, the GI50 [45] was 15.3 µM and the TGI [45] was 28.8 µM. It also gave a GI50 [46] of 13.7 µM, a TGI [46] of 26.7 µM and a GI50 [47] of 11.9 µM. The TGI [47] was 24.4 µM.
